# According to patent US10336732B2, “1-heterocyclyl isochromanyl compounds and analogs for treating CNS disorders” (Sunovion Pharmaceuticals Inc., priority 2015, dated 2019):
# Test system: mice
# Test: Neuropharmacological assay (SmartCube), behavioral signature of compound-treated mice
# Format: in vivo
# Details: i.p. 15 min before behavioral test, most efficacious dose(s) of 3 doses
# Procedure, shortened: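 Mice received compound i.p. in NMP/PEG/propylene glycol vehicle at 3 doses, 15 min before testing. Video-captured behavior was algorithmically compared with a reference-drug signature database.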
SMILES,AD: ADHD (probability that behavioral signature matches class),AG: analgesic (probability that behavioral signature matches class),AX: anxiolytic (probability that behavioral signature matches class),CE: cognitive enhancer (probability that behavioral signature matches class),DP: anti-depressant (probability that behavioral signature matches class),HA: hallucinogen (probability that behavioral signature matches class),MS: mood stabilizer (probability that behavioral signature matches class),PS: anti-psychotic (probability that behavioral signature matches class),SD: sedative hypnotic (probability that behavioral signature matches class),UN: uncharacterized CNS activity (probability that behavioral signature matches class)
"Cc1cccc2c1[C@H]([C@H]1CCCN1)OCC2 [Compound I-23, (R)-2-((R)-8-methylisochroman-1-yl)pyrrolidine]",+ (LOQ ≤ + <5%),+++ (25% ≤ +++ <50%),++ (5% ≤ ++ <25%),++ (5% ≤ ++ <25%),++ (5% ≤ ++ <25%),+ (LOQ ≤ + <5%),++ (5% ≤ ++ <25%),+++ (25% ≤ +++ <50%),++ (5% ≤ ++ <25%),+ (LOQ ≤ + <5%)
"c1ccc2c(c1)CCCO[C@H]2[C@@H]1CCCN1 [Compound I-98, (S)-2-((R)-1,3,4,5-tetrahydrobenzo[c]oxepin-1-yl)pyrrolidine]",+ (LOQ ≤ + <5%),+ (LOQ ≤ + <5%),++ (5% ≤ ++ <25%),+ (LOQ ≤ + <5%),+++ (25% ≤ +++ <50%),+ (LOQ ≤ + <5%),++ (5% ≤ ++ <25%),+++ (25% ≤ +++ <50%),++ (5% ≤ ++ <25%),+ (LOQ ≤ + <5%)
"Cc1cccc2c1[C@@H]([C@H]1CCCN1)OCCC2 [Compound I-104, (R)-2-((S)-9-methyl-1,3,4,5-tetrahydrobenzo[c]oxepin-1-yl)pyrrolidine]",+ (LOQ ≤ + <5%),+++ (25% ≤ +++ <50%),++ (5% ≤ ++ <25%),+ (LOQ ≤ + <5%),++ (5% ≤ ++ <25%),+ (LOQ ≤ + <5%),+ (LOQ ≤ + <5%),+ (LOQ ≤ + <5%),++ (5% ≤ ++ <25%),++ (5% ≤ ++ <25%)
"Fc1cccc2c1[C@H]([C@H]1CCCN1)OCC2 [Compound I-4, (R)-2-((R)-8-fluoroisochroman-1-yl)pyrrolidine]",+ (LOQ ≤ + <5%),++ (5% ≤ ++ <25%),+++ (25% ≤ +++ <50%),++ (5% ≤ ++ <25%),++ (5% ≤ ++ <25%),+ (LOQ ≤ + <5%),+ (LOQ ≤ + <5%),++ (5% ≤ ++ <25%),+ (LOQ ≤ + <5%),+ (LOQ ≤ + <5%)
"FC1(F)CN[C@H]([C@@H]2OCCc3ccccc32)C1 [Compound I-64, (S)-4,4-difluoro-2-((R)-isochroman-1-yl)pyrrolidine]",+ (LOQ ≤ + <5%),+ (LOQ ≤ + <5%),++ (5% ≤ ++ <25%),+ (LOQ ≤ + <5%),+ (LOQ ≤ + <5%),+ (LOQ ≤ + <5%),+ (LOQ ≤ + <5%),+ (LOQ ≤ + <5%),+ (LOQ ≤ + <5%),+ (LOQ ≤ + <5%)
"Fc1cccc2c1[C@@H]([C@@H]1CCCN1)OCC2 [Compound I-2, (S)-2-((S)-8-fluoroisochroman-1-yl)pyrrolidine]",+ (LOQ ≤ + <5%),+ (LOQ ≤ + <5%),++ (5% ≤ ++ <25%),+ (LOQ ≤ + <5%),+ (LOQ ≤ + <5%),+ (LOQ ≤ + <5%),++ (5% ≤ ++ <25%),++ (5% ≤ ++ <25%),++ (5% ≤ ++ <25%),+ (LOQ ≤ + <5%)
"c1ccc(-c2ccc3c(c2)CCO[C@H]3[C@@H]2CCCN2)nc1 [Compound I-58, 2-((R)-1-((S)-pyrrolidin-2-yl)isochroman-6-yl)pyridine]",+ (LOQ ≤ + <5%),++ (5% ≤ ++ <25%),++ (5% ≤ ++ <25%),+ (LOQ ≤ + <5%),+++ (25% ≤ +++ <50%),+ (LOQ ≤ + <5%),++ (5% ≤ ++ <25%),++ (5% ≤ ++ <25%),+ (LOQ ≤ + <5%),+ (LOQ ≤ + <5%)
"c1ccc2c(c1)CCO[C@@H]2[C@@H]1CCCN1 [Compound I-17, (S)-2-((S)-isochroman-1-yl)pyrrolidine]",+ (LOQ ≤ + <5%),+ (LOQ ≤ + <5%),++ (5% ≤ ++ <25%),++ (5% ≤ ++ <25%),+++ (25% ≤ +++ <50%),+ (LOQ ≤ + <5%),+ (LOQ ≤ + <5%),++ (5% ≤ ++ <25%),+ (LOQ ≤ + <5%),+ (LOQ ≤ + <5%)
"Cc1cccc2c1[C@@H]([C@H]1CCCN1)OCC2 [Compound I-24, (R)-2-((S)-8-methylisochroman-1-yl)pyrrolidine]",+ (LOQ ≤ + <5%),++ (5% ≤ ++ <25%),++ (5% ≤ ++ <25%),++ (5% ≤ ++ <25%),+++ (25% ≤ +++ <50%),+ (LOQ ≤ + <5%),++ (5% ≤ ++ <25%),++ (5% ≤ ++ <25%),++ (5% ≤ ++ <25%),+ (LOQ ≤ + <5%)
"Fc1cccc2c1CCO[C@@H]2[C@H]1CCCN1 [Compound I-16, (R)-2-((S)-5-fluoroisochroman-1-yl)pyrrolidine]",+ (LOQ ≤ + <5%),+ (LOQ ≤ + <5%),++ (5% ≤ ++ <25%),++ (5% ≤ ++ <25%),++ (5% ≤ ++ <25%),+ (LOQ ≤ + <5%),++ (5% ≤ ++ <25%),+++ (25% ≤ +++ <50%),+ (LOQ ≤ + <5%),+++ (25% ≤ +++ <50%)
"Fc1cccc2c1CCO[C@H]2[C@H]1CCN1 [Compound I-95, (R)-2-((R)-5-fluoroisochroman-1-yl)azetidine]",+ (LOQ ≤ + <5%),+++ (25% ≤ +++ <50%),++ (5% ≤ ++ <25%),++ (5% ≤ ++ <25%),++ (5% ≤ ++ <25%),+ (LOQ ≤ + <5%),+ (LOQ ≤ + <5%),++ (5% ≤ ++ <25%),+ (LOQ ≤ + <5%),+ (LOQ ≤ + <5%)

# Same assay, conditions: i.p. 15 min before behavioral test, most efficacious dose(s) of 3 doses
row,SMILES,XG: anxiogenic (probability that behavioral signature matches class)
1,"Cc1cccc2c1[C@H]([C@H]1CCCN1)OCC2 [Compound I-23, (R)-2-((R)-8-methylisochroman-1-yl)pyrrolidine]",+ (LOQ ≤ + <5%)
2,"c1ccc2c(c1)CCCO[C@H]2[C@@H]1CCCN1 [Compound I-98, (S)-2-((R)-1,3,4,5-tetrahydrobenzo[c]oxepin-1-yl)pyrrolidine]",+ (LOQ ≤ + <5%)
3,"Cc1cccc2c1[C@@H]([C@H]1CCCN1)OCCC2 [Compound I-104, (R)-2-((S)-9-methyl-1,3,4,5-tetrahydrobenzo[c]oxepin-1-yl)pyrrolidine]",+ (LOQ ≤ + <5%)
4,"Fc1cccc2c1[C@H]([C@H]1CCCN1)OCC2 [Compound I-4, (R)-2-((R)-8-fluoroisochroman-1-yl)pyrrolidine]",+ (LOQ ≤ + <5%)
5,"FC1(F)CN[C@H]([C@@H]2OCCc3ccccc32)C1 [Compound I-64, (S)-4,4-difluoro-2-((R)-isochroman-1-yl)pyrrolidine]",+ (LOQ ≤ + <5%)
6,"Fc1cccc2c1[C@@H]([C@@H]1CCCN1)OCC2 [Compound I-2, (S)-2-((S)-8-fluoroisochroman-1-yl)pyrrolidine]",+ (LOQ ≤ + <5%)
7,"c1ccc(-c2ccc3c(c2)CCO[C@H]3[C@@H]2CCCN2)nc1 [Compound I-58, 2-((R)-1-((S)-pyrrolidin-2-yl)isochroman-6-yl)pyridine]",+ (LOQ ≤ + <5%)
8,"c1ccc2c(c1)CCO[C@@H]2[C@@H]1CCCN1 [Compound I-17, (S)-2-((S)-isochroman-1-yl)pyrrolidine]",+ (LOQ ≤ + <5%)
9,"Cc1cccc2c1[C@@H]([C@H]1CCCN1)OCC2 [Compound I-24, (R)-2-((S)-8-methylisochroman-1-yl)pyrrolidine]",+ (LOQ ≤ + <5%)
10,"Fc1cccc2c1CCO[C@@H]2[C@H]1CCCN1 [Compound I-16, (R)-2-((S)-5-fluoroisochroman-1-yl)pyrrolidine]",+ (LOQ ≤ + <5%)
11,"Fc1cccc2c1CCO[C@H]2[C@H]1CCN1 [Compound I-95, (R)-2-((R)-5-fluoroisochroman-1-yl)azetidine]",+ (LOQ ≤ + <5%)
